Data as given in patent US6827949B2, “Wood preservative” (Takeda Chemical Industries, Ltd., priority 2001, dated 2004).

Assays:
[1] = system: spore mixture of Aspergillus niger, Penicillin funculosum, Aureobasidium pullulans and Gliocladium virens; test: Woodstaining fungal growth inhibition test; type: cell-based; parameters: key: 0: No fungal growth; 1: Fungal growth; details: filter paper immersed in 5 w/w % acetone solution, sprayed with spore mixture, 2% agar; Control 1
Source text: In the solution, a No.2 filter paper of 1×1 cm in size was immersed, taken out and then air-dried.
Aureobasidium pullulans and […]

Fomitopsis palustris = test: Wood-decaying fungal growth inhibition test; type: cell-based; parameters: key: 0: No growth; 1: Fungal growth; details: filter paper immersed in 5 w/w % acetone solution, placed on Fomitopsis palustris on PDA medium; Control 1
Source text: A No.2 filter paper of 1×1 cm in size was immersed in the solution, taken out and then air-dried. The filter was then placed on a Fomitopsis palustris which had been cultivated on a PDA medium in a petri dish and observed conditions of fungal growth for 8 weeks.

[2] = system: worker ants of Coptotermes formosanus; test: Damage (ingestion) inhibition test (filter paper); type: in vivo; parameters: key: 0: No damage; 1: Damage of ½ or less; 2: Damage of ½ to ¾; 3: Damage of ¾ with some remainder; 4: Complete damage; details: filter paper immersed in 1 w/w % solution in acetone (hispidin in methanol); 100 worker ants; Control 4
Experimental: A 1 w/w % solution of each compound shown in Table 7 in acetone (except for hispidin which was prepared as a 1 w/w % solution in methanol) was prepared.
In this solution, a No.2 filter paper of 1×1 cm in size was immersed, taken out and then air-dried. It was then placed in a 11-K bottle in which 100 worker ants of Coptotermes formosanus had been kept, and the ingestion behavior was observed. Hispidin employed was a reagent produced by Calbiochem.

| Structure (SMILES) | Fungal growth after 3 days [1] | Fungal growth after 8 weeks (Fomitopsis palustris) | Damage degree after 1 week [2] |
| --- | --- | --- | --- |
| COC1=CC(=O)OC(CCc2ccc(OC)cc2)C1 (stereo not shown) [5,6,7,8-Tetrahydroyangonin] | 0 | 0 | 0 |
| COc1ccc(/C=C/c2cc(OC)cc(=O)o2)cc1 [Yangonin] | 0 | 0 | 1 |
| COC1=CC(=O)O[C@@H](CCc2ccccc2)C1 [7,8-Dihydrokawain] | 0 | 0 | 0 |
| COC1=CC(=O)O[C@@H](/C=C/c2ccc3c(c2)OCO3)C1 [Methysticin] | 0 | 0 | 0 |
| COc1cc(/C=C/c2ccccc2)oc(=O)c1 [5,6-Dehydrokawain] | 0 | 0 | 1 |
| COC1=CC(=O)O[C@@H](CCc2ccc3c(c2)OCO3)C1 [7,8-Dihydromethysticin] | 0 | 0 | 0 |
| COC1=CC(=O)O[C@@H](/C=C/c2ccccc2)C1 [Kawain] | 0 | 0 | 1 |
| O=c1cc(O)cc(/C=C/c2ccc(O)c(O)c2)o1 [Hispidin, reference compound] |  |  | 1 |
